The results in this text go back to the RepoRT retention time repository.

The series can be described thus: Agilent ZORBAX 300 SB-C18, 150 × 1 mm, 3.5 µm; A: water + 0.01% heptafluorobutyric acid; B: acetonitrile + 0.01% heptafluorobutyric acid; gradient (min/%B) 0/0 100/90. The settings on record: stereoisomer not certain.
For `Cc1ccc(-c2cnc3ccccc3[n+]2C)c(C)c1`, the LC retention time was found to be 10.4 min.
In the case of `COCCc1ccc(OCC(O)CNC(C)C)cc1` (stereo unspecified), the LC retention time was determined as 9.27 min.
The value for `Cc1[nH]c(-c2ccccc2)c(-c2ccccc2)c1C(=O)OCc1ccccc1` was 18.2 min; that for `CCCCc1ccc(NC=CC(=O)c2ccc(C)cc2)cc1` was 21.5 min.
Take `CC(C)CNCCN1CCOCC1`: the LC retention time is 7.31 min.
The value for `COC(=O)Cn1c(=O)n(C)c2c(=O)n(C)c(=O)n(C)c21` was 8.93 min.
Consider `C#CCN(C)C`, for which the LC retention time amounted to 4.22 min.
As to `CN(C)CCNC1=CC(=O)CC(C)(C)C1`, the LC retention time was 7.29 min.
Consider `Cc1cc(C)cc(N)c1`, for which the LC retention time came out at 8.29 min.
Then `NC(=O)CCCc1c[nH]c2ccccc12`, with 9.42 min; and `CCOC(=O)c1ccc(NC(=O)C(c2ccccc2)c2ccccc2)cc1`, with 16.9 min.
Consider `CNCCO`, for which the LC retention time stood at 2.61 min.
`c1ccc(Cc2nn[nH]n2)cc1`: the LC retention time was 8.45 min.
For `Cc1cc(=O)n(-c2ccc(C(=O)O)cc2)[nH]1`, the LC retention time was determined as 8.05 min.
On to `c1ccc2[nH]c(CCn3c4c(c5ccccc53)CCCC4)nc2c1`, for which the LC retention time is 12 min.
`CCN(CC)CCn1cnc2c1c(=O)n(C)c(=O)n2C`: the LC retention time is 7.8 min.
As for `O=C1NC(=O)C(c2ccccc2)(c2ccccc2)N1`, the LC retention time was found to be 11 min.
Then `c1ccc(-c2cc(N3CCCCC3)c3ccccc3n2)cc1`, with 12 min.
With `Cn1c(=O)c2c(ncn2C)n(C)c1=O`, the LC retention time was 7.49 min.
Then `CCc1ccccn1`, with 6.68 min.
The value for `CC(C)c1ccc(CC(NC(=O)c2ccccc2)C(=O)NCC(=O)O)cc1` (stereo unspecified) was 12.5 min; that for `Cc1cccc(C(=O)C=CN(C)C)c1` was 10.9 min; that for `O=Cc1cccc2[nH]ccc12` was 9.79 min.
In the case of `CC(=O)Nc1ccc(Cc2ccncc2)cc1`, the LC retention time stood at 7.75 min.
On to `Cc1ccc(NC2=NCCCS2)cc1`, for which the LC retention time turned out to be 8.91 min.
Then `C1CCNCC1`, with 6.6 min; and `CCC1(c2ccccc2)CCC(=O)NC1=O` (stereo unspecified), with 11.5 min.
For `O=C(O)Cn1c(=O)c(-c2ccccc2)nc2ccccc21`, the LC retention time amounted to 11.8 min.
Then `O=P(O)(O)CN(CCN(CP(=O)(O)O)CP(=O)(O)O)CP(=O)(O)O`, with 1.09 min.
Turning to `Cc1cc(C(=O)O)nc2ccccc12`, the LC retention time came out at 5.5 min.
Turning to `NCCN1CCNCC1`, the LC retention time is 6.42 min.
Then `CN(C)Cc1ccccc1`, with 7.53 min; and `CCOC(=O)CC(=O)Nc1ccc(C(=O)OC)cc1`, with 11.1 min.
Take `CCn1c(-c2ccccc2)csc1=Nc1ccc(C)c(C)c1`: the LC retention time was determined as 12.5 min.
Then `CNCCCN1c2ccccc2CCc2ccccc21`, with 11.5 min.
`Nc1ccc2[nH]ncc2c1`: the LC retention time turned out to be 5.74 min.
The value for `CC(C)c1ccccc1NC(=O)CN` was 8.61 min; that for `O=C(C[n+]1ccccc1)C1CC1` was 6.91 min; that for `CN(C)CCC=C1c2ccccc2CCc2ccccc21` was 11.8 min.
On to `Cc1cc(C)nc(Nc2ccccc2C)n1`, for which the LC retention time was 10.7 min.
For the compound `c1ccn(-c2ccc3cn[nH]c3c2)c1`, the LC retention time stood at 11.8 min.
The value for `CNCCCn1c(=O)[nH]c2ccccc21` was 7.64 min; that for `NCCc1cccs1` was 7.47 min; that for `Nc1ccc(C(=O)NN=Cc2cccc3ccccc23)cc1` was 11.6 min.
`CCCc1ccccc1N`: the LC retention time was 9.54 min.
In the case of `Cc1cccc(OCC(O)CNC(C)C)c1` (stereo unspecified), the LC retention time stood at 9.65 min.
With `O=C(NCCO)C(=O)NC(c1ccccc1)c1ccccc1`, the LC retention time amounted to 11.2 min.
For the compound `NC1CC(CO)C(O)C1O` (stereo unspecified), the LC retention time was 2.49 min.
Consider `COC(=O)c1[nH]c2ccccc2c1-n1cccc1`, for which the LC retention time was determined as 14.3 min.
Consider `CCNC(=S)NNC(=S)NCc1ccccc1`, for which the LC retention time was determined as 10.9 min.
In the case of `Cn1c(=O)cc(C(=O)O)[nH]c1=O`, the LC retention time was 1.57 min.
For `CC(C)c1cc[nH]c1-c1ccccc1`, the LC retention time was determined as 16.3 min.
Take `O=C(CC1NC(=O)N(C2CCCCC2)C1=O)Nc1cccnc1` (stereo unspecified): the LC retention time worked out at 9.1 min.
Regarding `CCCCCn1c(CCC)nc2ccccc21`, the LC retention time amounted to 11.3 min.
Turning to `CN(C)c1ccc(C=NNc2nc3ccccc3c(=O)n2-c2ccccc2)cc1`, the LC retention time is 14.3 min.
The value for `Nc1ccc[nH]c1=O` was 2.98 min.
Turning to `CC(=O)CC(C)(C)N`, the LC retention time stood at 6.26 min.
Take `CNCc1cccc(OC)c1OC`: the LC retention time was found to be 7.9 min.
As for `Cn1c2ccccc2c2nc3ccccc3nc21`, the LC retention time came out at 14.5 min.
For `O=C1CN(C(=O)CCCc2c[nH]c3ccccc23)c2ccccc2N1`, the LC retention time turned out to be 12 min.
On to `CN(C)CCCNC(=O)Nc1cccc2ccccc12`, for which the LC retention time was found to be 8.85 min.
For the compound `Cc1nc(N)cc(=O)[nH]1`, the LC retention time is 2.75 min.
With `CCCCOc1ccccc1N`, the LC retention time came out at 10.8 min.
Turning to `OCc1ccccc1CNC1CCCCC1`, the LC retention time is 8.87 min.
Then `CC(=O)Nc1c(C)cc(C)cc1N`, with 7.92 min; and `Nc1ccccc1NCCOc1ccccc1`, with 11 min; and `COc1ccc2c(c1)C(C)N1C(=O)c3ccccc3C1O2` (stereo unspecified), with 13.9 min.
On to `O=C1C=CC(=O)N1C1CCCCC1`, for which the LC retention time was 9.58 min.
Regarding `NC1Cc2ccccc2NC1=O` (stereo unspecified), the LC retention time amounted to 7.26 min.
`Nc1cc(C(=O)N2CCCCC2)cc(C(=O)N2CCCCC2)c1`: the LC retention time was 9.88 min.
Then `Cc1cc(C)c2c(=O)n(CC(=O)NC(C)CCc3ccccc3)c(=O)n(-c3ccccc3)c2n1` (stereo unspecified), with 15.7 min; and `Nc1ccccc1C(=O)N1CCNC(=O)C1`, with 6.83 min.
In the case of `CC1(C)CC(NC(=O)NC2CCCCC2)CC(C)(C)N1`, the LC retention time was 8.78 min.
`COc1ccc(-c2cc(=O)c3c(ccc4ccccc43)o2)cc1`: the LC retention time is 17 min.
With `CC(C)CNCC(C)C`, the LC retention time was determined as 8.04 min.
Then `COC(=O)Cn1c(C)cc(C)c(N)c1=O`, with 7.8 min; and `COc1nc(N2CCCC2)[nH]c(=O)n1`, with 7.43 min.
Consider `CCCC(C)N` (stereo unspecified), for which the LC retention time is 7.09 min.
On to `O=C(c1cccc(C(=O)N(Cc2ccccc2)c2ccccn2)c1)N(Cc1ccccc1)c1ccccn1`, for which the LC retention time was determined as 15.4 min.
As to `O=C(O)CCC(=O)Nc1ccc2c(c1)CCCC2`, the LC retention time was determined as 11.2 min.
Consider `COC(=O)Cn1c(=O)c(-c2ccccc2)nc2ccccc21`, for which the LC retention time came out at 14.3 min.
In the case of `Cc1nnc(NN=Cc2ccc(N(C)C)cc2)[nH]c1=O`, the LC retention time is 9.86 min.
The value for `CCC(C)C1(CC)C(=O)NC(=O)NC1=O` (stereo unspecified) was 9.71 min; that for `Cc1ccc(C(=O)c2ccc(C)c(N)c2)cc1N` was 10.3 min; that for `Cc1cccnn1` was 5.91 min.
Then `Cc1ccc(C=NNC(N)=S)cc1`, with 10.8 min.
`Cc1cc(C)cc(NC(=O)c2cc(-c3ccccc3)nc3ccccc23)c1`: the LC retention time was found to be 17.9 min.
Consider `O=C(C=Cc1ccccc1)c1ccc(O)c(O)c1O`, for which the LC retention time came to 12.6 min.
Take `CCOC(=O)c1[nH]c(C)cc1C`: the LC retention time turned out to be 12.5 min.
As to `COC(=O)CCCCCN`, the LC retention time came to 7.25 min.
For the compound `CCOC(=O)C1C(C)=NC(=O)NC1C` (stereo unspecified), the LC retention time was determined as 8.75 min.
Turning to `CC(=O)NCCOc1ccc(C)cc1`, the LC retention time was determined as 10.4 min.
As to `O=C(C=Cc1ccccc1O)c1ccc(O)cc1O`, the LC retention time stood at 12.2 min.
Turning to `C=CCN1CCNCC1`, the LC retention time was found to be 7.39 min.
With `Cc1nc(=S)c2ccccc2[nH]1`, the LC retention time was 9.45 min.
As to `CN(C)CCC(=O)c1ccc2ccccc2c1`, the LC retention time came out at 9.4 min.
Take `NCCN`: the LC retention time stood at 5.99 min.
Turning to `O=C1CCCC(O)=C1C1(O)C(=O)c2ccccc2C1=O`, the LC retention time was found to be 8.21 min.
`C=CN1CCCC1=O`: the LC retention time stood at 7.85 min.
Turning to `O=c1[nH]c2ccccc2[nH]c1=S`, the LC retention time was found to be 7.24 min.
Then `CNC1CCCCC1NC` (stereo unspecified), with 7.14 min; and `CCSc1ccc2c(c1)N(CCCN1CCN(C)CC1)c1ccccc1S2`, with 12.8 min; and `CCC(N)CC`, with 7.05 min.
As to `COc1ccc2cnn(-c3ccccc3)c(=O)c2c1OC`, the LC retention time was determined as 11.5 min.
Regarding `Nc1c2ccccc2nc2ccccc12`, the LC retention time worked out at 8.38 min.
As to `C=CCN(C)C`, the LC retention time worked out at 5.73 min.
Then `C=CC1CN2CCC1CC2C(O)c1ccnc2ccccc12` (stereo unspecified), with 8.84 min; and `Nc1nc(N)nc(-c2ccc(-c3nc(N)nc(N)n3)cc2)n1`, with 7.16 min; and `COC(=O)CCNC(C)Cc1ccccc1` (stereo unspecified), with 8.9 min.
In the case of `CCN(CC)c1ccc(N=Cc2ccc(N(CC)CC)cc2O)cc1`, the LC retention time was 11.5 min.
`O=CN1CCN(C=O)CC1`: the LC retention time was 3.45 min.
With `Cc1ccc2cc(C(=O)O)c(=O)[nH]c2c1`, the LC retention time is 9.64 min.
With `Cc1ccccc1NCC(=O)Nc1c(C)cccc1C`, the LC retention time worked out at 13.8 min.
For the compound `CC(=O)N(C)c1ccc(O)cc1`, the LC retention time came out at 7.68 min.
The value for `O=Cc1ccc[nH]1` was 6.97 min; that for `CCOC(CN1CCCCC1)OCC` was 8.11 min.
